According to patent publication US20250120970A1, “PHARMACEUTICAL COMPOSITION INCLUDING PHTHALAZINONE DERIVATIVE FOR CO-ADMINISTRATION WITH ANTICANCER DRUG” (priority 2022, published 2025):
Counter-ions that a name gives are not always drawn. Blank lines part the entries; values can stand above or below the molecule they belong to.

Key:
SNU-484 [1] = assay: MTT assay, irinotecan with or without hydrochloride compound of Formula 1; type: cell-based; settings: Homo sapiens, 120 h, 5 days, irinotecan alone or with 1 μM hydrochloride compound of Formula 1
[2] = test system: five human-derived gastric cancer cell lines (AGS, SNU-668, SNU-216, SNU-484, and SNU-638); assay: MTT assay, irinotecan experiment, summary over the five cell lines; settings: 5 days, irinotecan with or without 1 μM hydrochloride compound of Formula 1
SNU-668 [3] = assay: MTT assay, irinotecan with or without hydrochloride compound of Formula 1; type: cell-based; settings: Homo sapiens, SNU668, 120 h, 5 days, irinotecan alone or with 1 μM hydrochloride compound of Formula 1
SNU-638 [4] = assay: as above; type: cell-based; settings: Homo sapiens, 120 h, 5 days, irinotecan alone or with 1 μM hydrochloride compound of Formula 1
AGS [5] = assay: as above; type: cell-based; settings: Homo sapiens, 120 h, 5 days, irinotecan alone or with 1 μM hydrochloride compound of Formula 1
SNU-216 = assay: as above; type: cell-based; settings: Homo sapiens, 120 h, 5 days, irinotecan alone or with 1 μM hydrochloride compound of Formula 1
AGS [6] = assay: MTT assay, oxaliplatin with or without hydrochloride compound of Formula 1; type: cell-based, human; settings: 5 days, oxaliplatin alone or with 1 μM hydrochloride compound of Formula 1
From the text: (§1) Oxaliplatin (M.W. 397.29) was obtained from Sigma Aldrich.

SNU-638 [7] = assay: as above; type: cell-based, human; settings: 5 days, oxaliplatin alone or with 1 μM hydrochloride compound of Formula 1
From the text: as §1

SNU-484 [8] = assay: as above; type: cell-based, human; settings: 5 days, oxaliplatin alone or with 1 μM hydrochloride compound of Formula 1
From the text: as §1

SNU-668 [9] = assay: as above; type: cell-based, human; settings: 5 days, oxaliplatin alone or with 1 μM hydrochloride compound of Formula 1
From the text: as §1

[10] = test system: five human-derived gastric cancer cell lines (AGS, SNU-668, SNU-216, SNU-484, and SNU-638); assay: MTT assay, oxaliplatin experiment, summary over the cell lines; type: cell-based; settings: 5 days, oxaliplatin with or without 1 μM hydrochloride compound of Formula 1
From the text: as §1

[11] = test system: MKN45 human gastric cancer xenograft; assay: subcutaneous MKN45 human gastric cancer xenograft model, tumor volume; settings: for Tumor volume (Mean ± SEM): Formula 1 HCl 2 mg/kg p.o. QD, irinotecan 5 mg/kg i.v. QW

- IC50 (SNU-484 [1]): 0.789 µM
- IC50 (SNU-668 [3]): 4.3 µM
- IC50 (SNU-638 [4]): 0.657 µM
- IC50 (AGS [5]): 0.367 µM
- IC50 (SNU-216): 2.01 µM
SMILES: CCc1c2c(nc3ccc(OC(=O)N4CCC(N5CCCCC5)CC4)cc13)-c1cc3c(c(=O)n1C2)COC(=O)[C@]3(O)CC [Comparative Example 1, Irinotecan hydrochloride]
- cell death (cell viability, FIG. 1) [2]: exhibited an effect of cell death

SMILES: O=C1[O][Pt-2]2([NH2+]C3CCCC[C@H]3[NH2+]2)[O]C1=O (stereo partly drawn) [Comparative Example 2, Oxaliplatin]
- IC50 (AGS [6]): 2.38 µM
- IC50 (SNU-638 [7]): 30.3 µM
- IC50 (SNU-484 [8]): 10.4 µM
- IC50 (SNU-668 [9]): 11.2 µM
- cell death (cell viability, FIG. 2) [10]: exhibited an effect of cell death

SMILES: O=C(c1cc(Cc2n[nH]c(=O)c3ccccc23)ccc1F)N1CC(CNC2CC2)C1 [Comparative Example 4, 4-[3-(3-[(cyclopropylamino)methyl]azetidine-1-carbonyl)-4-fluorobenzyl]phthalazine-1 (2H)-on]
- Tumor volume (Mean ± SEM) ([11]; 0 day (grouping date), MKN45 xenograft mice): 156.60 mm^3
- Tumor volume (Mean ± SEM) ([11]; 3rd day, MKN45 xenograft mice): 190.75 mm^3
- Tumor volume (Mean ± SEM) ([11]; 7th day, MKN45 xenograft mice): 272.69 mm^3
- Tumor volume (Mean ± SEM) ([11]; 10th day, MKN45 xenograft mice): 359.75 mm^3
- Tumor volume (Mean ± SEM) ([11]; 14th day, MKN45 xenograft mice): 461.91 mm^3
- Tumor volume (Mean ± SEM) ([11]; 17th day, MKN45 xenograft mice): 588.26 mm^3
- Tumor growth inhibition (TGI) ([11]; 21st day, Formula 1 HCl 2 mg/kg QD, irinotecan 5 mg/kg QW): 19.69%
- Tumor size on 21st day (Mean ± SEM) ([11]; 21st day, MKN45 xenograft mice, Formula 1 HCl 2 mg/kg QD, irinotecan 5 mg/kg QW): 727.36 ± 69.46 mm^3
- Tumor volume (Mean ± SEM) ([11]; 21st day, MKN45 xenograft mice): 727.36 mm^3
- T/C ([11]; 21st day, treatment vs vehicle control tumor volume): 80.31%
